In PMC11434480, “Discovery and Optimization of Ergosterol Peroxide Derivatives as Novel Glutaminase 1 Inhibitors for the Treatment of Triple-Negative Breast Cancer” (Molecules, 2024):

Experiments:
human GLS1 = molecular target: T1, human GLS1 (Homo sapiens, UniProt O94925); test: GLS1 inhibitor screening kit in MDA-MB-231 cells; assay type: cell-based; settings: 48 h, read-out: GLS1 inhibition IC50
T1 sequence (O94925 55-669): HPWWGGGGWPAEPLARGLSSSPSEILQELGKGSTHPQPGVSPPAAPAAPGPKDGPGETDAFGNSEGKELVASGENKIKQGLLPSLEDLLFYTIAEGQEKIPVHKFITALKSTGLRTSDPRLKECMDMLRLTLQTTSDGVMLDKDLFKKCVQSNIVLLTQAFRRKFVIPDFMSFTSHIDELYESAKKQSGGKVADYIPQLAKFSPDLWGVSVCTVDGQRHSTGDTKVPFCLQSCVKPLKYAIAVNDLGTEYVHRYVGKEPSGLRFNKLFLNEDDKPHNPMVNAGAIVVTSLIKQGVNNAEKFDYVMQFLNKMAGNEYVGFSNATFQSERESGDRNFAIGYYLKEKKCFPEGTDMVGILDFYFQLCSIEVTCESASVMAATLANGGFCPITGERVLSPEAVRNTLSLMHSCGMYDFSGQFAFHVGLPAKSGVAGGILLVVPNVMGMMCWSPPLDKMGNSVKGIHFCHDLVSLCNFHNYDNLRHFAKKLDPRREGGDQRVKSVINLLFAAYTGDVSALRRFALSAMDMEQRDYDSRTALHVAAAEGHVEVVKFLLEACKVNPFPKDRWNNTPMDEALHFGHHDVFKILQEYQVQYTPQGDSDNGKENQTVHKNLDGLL
Procedure: The GLS1 inhibitory activity of compound 3g in MDA-MB-231 cells was evaluated using a GLS1 inhibitor screening kit.
MDA-MB-231 cells were cultured for 24 h and then incubated with different concentrations of 3g or 0.1%DMSO for 48 h and washed with PBS 1–2 times. The cells were then collected, subjected to ultrasound in an ice bath for 5 min, and centrifuged at 4 °C and 1200 g for 15 min. Next, the GLS1 activity in human GLS1 was evaluated according to the manufacturer’s guidelines using a GLS1 screening kit (Sangon Biotech #D799306, Shanghai, China) in a 96-well plate (Corning # 351172, New York, NY, USA).

MDA-MB-231 cells [1] = test: Colony formation assay; assay type: cell-based; settings: Homo sapiens, MDA-MB-231 colony formation, vs blank control, read-out: proliferation inhibition rate
Procedure: To explore the inhibitory effect of 3g on the proliferation of MDA-MB-231 cells, we treated MDA-MB-231 cells with different concentrations of 3g and EP.
MDA-MB-231 cells (1000 cells/well) were seeded into a 6-well plate with 2 mL L–15 culture medium and incubated at 37 °C for 24 h. Following this process, different concentrations of 3g or EP were added and incubated for an additional 24 h before the culture medium was replaced. The cells then continued to be cultured for two weeks, with the culture medium being changed twice a week. After two weeks, the cell colonies were washed with PBS, fixed using a 4% paraformaldehyde solution (Beyotime, Shanghai, China), and subsequently stained with a 0.05% crystal violet solution (Beyotime, Shanghai, China).

MDA-MB-231 = test: MTT antiproliferative assay, MDA-MB-231; assay type: cell-based, human
Procedure: (§2) The in vitro antiproliferative activity of the novel EP derivatives (1a–h, 2a–h, 3a–h, and 4a–h) was evaluated on four different human cancer cell lines (A549, HepG2, MCF-7, and MDA-MB-231) using an MTT assay.
(§3) Cells containing 10% fetal bovine serum (FBS; WISENT, Nanjing, China) were cultured in an L-15 culture medium (L-15, BOSTER, Wuhan, China) in an incubator at 37 °C. The cells were then inoculated into 96-well plates at a density of 5 × 10^3/well, cultured in 100 μL L-15 medium for 24 h, and incubated with the compound to be tested for 48 h. Next, 20 μL of MTT (5 mg/mL) solution was added and incubated at 37 °C for 4 h away from light. A resorption culture medium was then supplemented with 150 μL DMSO per well. The absorbance was measured at 570 nm using an enzymometer (SAFIRE2, Tecan, Swiss Confederation, Männedorf, Switzerland). The cytotoxic activity was presented in terms of half the inhibition rate.

MDA-MB-231 cells [2] = test: Western blot of apoptosis proteins; assay type: cell-based, human; settings: MDA-MB-231, 48 h
Procedure: (§1) To determine whether the decrease in MDA-MB-231 cell viability observed after 3g treatment was related to apoptosis, we treated MDA-MB-231 cells with 3g and assessed the changes in apoptosis.
MDA-MB-231 cells were subjected to treatment with different concentrations of 3g or 0.1% DMSO for 48 h. Subsequently, the cells were gathered, and the total protein was extracted by adding protease inhibitors and phosphatase inhibitors along with 1 × RIPA lysis buffer (Beyotime Company). The quantification of the extracted protein was carried out using a BCA kit (ComWin Biotech Company, Beijin, China). The extracted total protein, with an amount of 20 μg/well, underwent SDS–polyacrylamide gel electrophoresis (SDS-PAGE, provided by BioRad Laboratories located in Hercules, CA, USA). The protein was then wet-transferred to a PVDF membrane. Next, GLS1, Bcl-2, Bax, Cyt C, caspase-9, cleaved caspase-9, caspase-3, cleaved caspase-3, and GAPDH were incubated at 4 °C overnight. Subsequently, the secondary isotype-specific antibody, which was labeled with horseradish peroxidase, was obtained from Cell Signaling Technology. The color was developed with an ECL luminescent solution (Meilun Biotech Company, Dalian, China) and detected using a gel imager (ChemiDoc MP, BioRad Laboratories, CA, USA).

A549 = test: MTT antiproliferative assay, A549; assay type: cell-based, human; settings: Homo sapiens, A549, 48 h, mean of three experiments ± SD
Procedure: as §2, §3

HepG2 = test: MTT antiproliferative assay, HepG2; assay type: cell-based, human; settings: Homo sapiens, HepG2, 48 h, mean of three experiments ± SD
Procedure: as §2, §3

MDA-MB-231 cells [3] = test: Annexin V-FITC/PI apoptosis assay (flow cytometry); assay type: cell-based, human; settings: Annexin V-FITC/PI double staining, 48 h
Procedure: as §1
An Annexin V FITC/PI apoptosis detection kit (Keygen Company, Nanjing, China) was employed to identify apoptotic cells. Briefly, MDA-MB-231 cells were subjected to treatment with varying concentrations of 3g or 0.1% DMSO and incubated at 37 °C for 48 h. Subsequently, the cells were harvested and resuspended in PBS at a concentration of 1 × 10^5 cells/mL. Following centrifugation at 2000 rpm/min for 5 min, 500 μL binding buffer, 5 μL Annexin V FITC, and 5 μL propidium iodide (PI) were added. The mixture was then incubated at room temperature in the absence of light for 20 min. Finally, the samples were analyzed using FACSCalibur flow cytometry (Becton, Dickinson and Company, Franklin Lakes, USA).

MDA-MB-231 cells [4] = test: ROS assay (DCFH-DA, confocal microscopy and flow cytometry); assay type: cell-based, human; settings: MDA-MB-231, different concentrations, 48 h
Procedure: Excessive ROS in tumor cells can induce tumor cell apoptosis. Nevertheless, the ROS levels in tumor cells were often influenced by glutamine. Thus, the regulation of glutamine metabolism was crucial for ROS homeostasis. In this study, laser confocal microscopy and flow cytometry were employed to detect the ROS level.
MDA-MB-231 cells were inoculated in 24-well plates at a density of 8 × 10^3 cells per well and incubated with different concentrations of 3 g or 0.1% DMSO for 48 h. The cells were washed with PBS 1–2 times. The cells were then incubated at 37 °C for 20 min with reference to a DCFH-DA fluorescent probe kit (Keygen Company, Nanjing, China) and washed with a serum-free medium 1–2 times. The ROS levels were observed via laser confocal microscopy (LSM710, Zeiss, Oberkochen, Germany) or detected with flow cytometry (FACS Calibur, Becton, Dickinson and Company, Franklin Lakes, NJ, USA).

MDA-MB-231 cells [5] = assay type: cell-based, human; settings: 2, 4 and 8 μM, 48 h
4T1 cells = test: 4T1 transplanted tumor model in BALB/c mice
MCF-7 = test: MTT antiproliferative assay, MCF-7; assay type: cell-based, human; settings: Homo sapiens, MCF7, 48 h, mean of three experiments ± SD
Procedure: as §2, §3

[6] = 25 and 50 mg/kg/2 days, intraperitoneal, 14 days

For `COc1ccc(NC(=O)CCCC(=O)OC2CCC3(C)C4CCC5(C)C(C(C)C=CC(C)C(C)C)CCC5C45C=CC3(C2)OO5)cc1` (stereo not drawn) [Compound 3g], the IC50 (human GLS1) was 3.77 µM, the inhibition at 2 µM (MDA-MB-231 cells [1]) was 56.3% and the IC50 (MDA-MB-231; Homo sapiens, MDA-MB-231, MTT, 48 h, mean of three experiments ± SD) was 3.2 ± 0.29 µM. For the same compound, the “fold higher activity than EP against MDA-MB-231” value (MDA-MB-231; ratio of IC50 values, EP vs compound) was 5.4 fold, the “expression of Bax, Cyt C, cleaved caspase-9 and cleaved caspase-3” value (MDA-MB-231 cells [2]) was “significantly upregulated” and the “expression of Bcl-2” value (MDA-MB-231 cells [2]) was “decreased the expression”. The IC50 (A549) was 13.5 ± 1.14 µM, the IC50 (HepG2) was 15.5 ± 0.63 µM and the “apoptosis of MDA-MB-231 cells” value (MDA-MB-231 cells [3]) was “increased significantly”. The “intracellular ROS level” value (MDA-MB-231 cells [4]) was “significantly elevated the intracellular ROS level”, the “glutamate production in MDA-MB-231 cells” value (MDA-MB-231 cells [5]) was “reduced the production of glutamate in MDA-MB-231 cells in a dose-dependent manner” and the “effect on body weights of the mice” value (4T1 cells; [6]) was “no significant effect”. The “tumor volume and tumor weight” value (4T1 cells; [6]) was “significantly reduced”, the tumor growth (4T1 cells; 25 and 50 mg/kg/2 days, intraperitoneal, 14 days, vs blank control) was “effectively inhibited” and the “therapeutic effect in mouse model of breast cancer” value (4T1 cells; dose of 50 mg/kg) was “remarkable therapeutic effects”. The “toxicity in mouse model of breast cancer” value (4T1 cells; dose of 50 mg/kg) was “no apparent toxicity”, the “histopathological changes in heart, liver, spleen, lungs and kidneys (HE staining)” value (4T1 cells; tumor-bearing mice, 14 days treatment) was “no histopathological changes” and the IC50 (MCF-7) was 4.57 ± 0.62 µM.
